Data on 24 compounds can be found in ChEMBL document CHEMBL5385969, “Design, synthesis, in vitro and in silico evaluation of indole-based tetrazole derivatives as putative anti-breast cancer agents” (RSC Med Chem, 2024).

The structures appear in SMILES notation.

In one data set the test system is T47D. The data set is described as follows: cells. Conditions: Homo sapiens, 48 h.
The subject of another data set is MCF7. The data set is described as follows: cells. The note with it: Homo sapiens, MCF7, 48 h.
The subject of a further data set is MDA-MB-231. The data set is described as follows: cells. The note with it: Homo sapiens, MDA-MB-231, 48 h.
Data set [1] in a line: Cytotoxicity against human HEK293 cells incubated for 48 hrs by MTT assay. The data set is classed as toxicity, cell-based. Background: Formazan colour is commonly taken as a measure of viable cells.

Description for MCF7: Antiproliferative activity against human MCF7 cells assessed as inhibition of cell growth incubated for 48 hrs by MTT assay
Description for MDA-MB-231: Antiproliferative activity against human MDA-MB-231 cells assessed as inhibition of cell growth incubated for 48 hrs by MTT assay
Description for T47D: Antiproliferative activity against human T47D cells assessed as inhibition of cell growth incubated for 48 hrs by MTT assay

For the compound `c1ccc(Cn2nnc(-c3cn(Cc4ccccc4)c4ccccc34)n2)cc1`, the results for the IC50 with T47D, in the data set with MCF7 and in the data set with MDA-MB-231 were 13.5 µM, 9.24 µM and 14.7 µM, respectively.

Take `COc1cccc(Cn2nnc(-c3cn(Cc4ccccc4)c4ccccc34)n2)c1`: the IC50 in the data set on T47D was 16.5 µM; in the data set on MCF7, 3.08 µM; with MDA-MB-231, 15.9 µM.

For `Cc1ccc(Cn2cc(-c3nnnn3Cc3cccc(Cl)c3)c3ccccc32)cc1`, the IC50 was 20 µM with T47D, 14.8 µM with MCF7 and 8.52 µM in the data set with MDA-MB-231.

For the compound `Cc1ccc(Cn2cc(-c3nnnn3Cc3ccc(Cl)c(Cl)c3)c3ccccc32)cc1`, the results for the IC50 with T47D, in the data set on MCF7 and with MDA-MB-231 were 9.01 µM, 10.2 µM and 12.4 µM, respectively.

With `Clc1cccc(Cn2nnc(-c3cn(Cc4ccccc4)c4ccccc34)n2)c1`, the IC50 came to 11.7 µM in the data set on T47D, 14.2 µM in the data set on MCF7 and 18.8 µM in the data set on MDA-MB-231.

As to `Cc1ccc(Cn2cc(-c3nnnn3Cc3ccccc3)c3ccccc32)cc1`, the figures for the IC50 with T47D, with MCF7 and with MDA-MB-231 were 14.5 µM, 9.93 µM and 9.62 µM, respectively.

In the case of `Cc1ccc(Cn2nnc(-c3cn(Cc4ccccc4)c4ccccc34)n2)cc1`, the IC50 in the data set with T47D came to 10.1 µM; in the data set with MCF7 it was 11.3 µM; in the data set with MDA-MB-231, 13.4 µM.

In the case of `Clc1ccc(Cn2nnc(-c3cn(Cc4ccccc4)c4ccccc34)n2)cc1Cl`, the IC50 at 48 h in data set [1] is greater than 125 µM. Besides, the results for the IC50 with T47D, with MCF7 and in the data set with MDA-MB-231 were 10 µM, 7.95 µM and 19.4 µM, respectively.

In data set [1], `Cc1c(-c2ccc(O)cc2)n(Cc2ccc(OCCN3CCCCCC3)cc2)c2ccc(O)cc12` [BAZEDOXIFENE] returned a 50% inhibitory concentration (IC50) at 48 h of 38.5 µM. Moreover, the IC50 turned out to be 14.2 µM with T47D, 7.31 µM in the data set with MCF7 and 6.73 µM with MDA-MB-231.

For `Cc1ccc(Cn2nnc(-c3cn(Cc4ccc(C)cc4)c4ccccc34)n2)cc1`, the IC50 with T47D was greater than 25 µM; in the data set on MCF7 it was greater than 25 µM; with MDA-MB-231, 15.8 µM.

As for `Cc1ccc(Cn2cc(-c3nnn(Cc4ccc(F)cc4)n3)c3ccccc32)cc1`, the figures for the IC50 with T47D, in the data set on MCF7 and with MDA-MB-231 were 15.8 µM, 13.3 µM and 13.1 µM, respectively.

Take `Cc1ccc(Cn2cc(-c3nnn(Cc4ccccc4)n3)c3ccccc32)cc1`: the IC50 in the data set with T47D is 15.8 µM; in the data set on MCF7 it was 11.9 µM; in the data set with MDA-MB-231, 8.2 µM.

Turning to `Clc1ccc(Cn2nnc(-c3cn(Cc4ccccc4)c4ccccc34)n2)c(Cl)c1`, the IC50 in the data set with T47D worked out at 10.9 µM; in the data set on MCF7, 12.7 µM; in the data set on MDA-MB-231, 7.69 µM.

As for `Cc1ccc(Cn2cc(-c3nnn[nH]3)c3ccccc32)cc1`, the IC50 in the data set with T47D was determined as 14.1 µM; in the data set with MCF7 it was 9.99 µM; with MDA-MB-231, 13.8 µM.

`Fc1ccc(Cn2nnc(-c3cn(Cc4ccccc4)c4ccccc34)n2)cc1`: the IC50 in the data set with T47D came to 17.8 µM; in the data set on MCF7, 22.7 µM; with MDA-MB-231, 12.9 µM.

For `Cc1ccc(Cn2cc(-c3nnn(Cc4cccc(Cl)c4)n3)c3ccccc32)cc1`, the IC50 came out at 14.2 µM in the data set on T47D, 13.2 µM in the data set with MCF7 and 12.8 µM in the data set with MDA-MB-231.

For the compound `Cc1ccc(Cn2cc(-c3nnn(Cc4ccc(Cl)c(Cl)c4)n3)c3ccccc32)cc1`, the figures for the IC50 with T47D, in the data set on MCF7 and with MDA-MB-231 were 23.9 µM, 8.73 µM and 14.9 µM, respectively.

For `c1ccc(Cn2cc(-c3nnn[nH]3)c3ccccc32)cc1`, the IC50 in the data set with T47D was 24.4 µM; in the data set with MCF7, greater than 25 µM; in the data set on MDA-MB-231, 16.6 µM.

For `Cc1ccc(Cn2cc(-c3nnn(Cc4ccc(Cl)cc4)n3)c3ccccc32)cc1`, the figures for the IC50 in the data set with T47D, with MCF7 and in the data set on MDA-MB-231 were 18.8 µM, 16.4 µM and 11.6 µM, respectively.

As to `COc1cccc(Cn2nnc(-c3cn(Cc4ccc(C)cc4)c4ccccc34)n2)c1`, the results for the IC50 in the data set on T47D, in the data set on MCF7 and with MDA-MB-231 were greater than 25 µM, 15.1 µM and 12.1 µM, respectively.

Consider `Cc1ccc(Cn2cc(-c3nnn(Cc4ccc(Cl)cc4Cl)n3)c3ccccc32)cc1`, for which the half-maximal inhibitory concentration (IC50) with T47D was found to be 10.6 µM; with MCF7 it was 16.6 µM; with MDA-MB-231, 16.7 µM.

`Clc1ccc(Cn2nnc(-c3cn(Cc4ccccc4)c4ccccc34)n2)cc1` had an IC50 at 48 h in data set [1] of 109 µM. The IC50 worked out at 3.83 µM in the data set on T47D, 7.83 µM with MCF7 and 15.7 µM in the data set on MDA-MB-231.

For the compound `Cc1ccc(Cn2nnnc2-c2cn(Cc3ccc(C)cc3)c3ccccc23)cc1`, the figures for the 50% inhibitory concentration (IC50) with T47D, in the data set with MCF7 and in the data set on MDA-MB-231 were 23.7 µM, 20.6 µM and 9.72 µM, respectively.

With `Cc1ccc(Cn2cc(-c3nnnn3Cc3ccc(Cl)cc3Cl)c3ccccc32)cc1`, the IC50 in the data set on T47D worked out at 8.15 µM; in the data set with MCF7 it was 8.32 µM; in the data set with MDA-MB-231, 11.2 µM.

The term IC50 denotes the concentration that inhibits the measured activity by half.
